From patent US20250333383A1, “N-OXIDE COMPOUNDS AND USE THEREOF” (SK BIOPHARMACEUTICALS CO., LTD., priority 2022, published 2025)

Target: T1, human Nav1.7 channels (Homo sapiens, UniProt Q15858)
T1 construct: host or cells: HEK293
Assay: hNav1.7 channel assay, whole cell patch clamp, two-pulse protocol
Type: cell-based
Details: TP2 (inactivated phase inhibition), HEK293 cells stably expressing human Nav1.7, read-out: Inhibition activity: percent inhibition on the inactivated state of hNav1.7
Source text: Whole cell patch clamp technique was used to investigate the inhibitory effects of the compound of Examples on human Nav1.7 channels, stably expressed in HEK293 cells. Human Nav1.7 recombinant cell line (CYL3011-precisION) was purchased from Eurofins.
Two-pulse protocol was used every 10 seconds to assess the state-dependent inhibition by Examples. From the holding potential of −90 mV, pre-pulse (200 ms at −120 mV) was followed by test pulse1 ([…]), then test pulse2 (TP2: 20 ms at 0 mV) was evoked after inter-pulse (20 ms at −100 mV).
Peak current amplitudes were measured for test pulses TP1 (resting phase inhibition) and TP2 (inactivated phase inhibition). The following solutions were used for screening assay: External (mM): 145 NaCl, 1 MgCl2, 1.8 CaCl2, 10 Hepes, 5 Glucose, pH 7.4, 300 mOsm; Internal (mM): 120 CsF, 10 NaCl, 10 EGTA, 10 HEPES, pH 7.2, 290 mOsm.
The inhibition on the inactivated state of hNav1.7 was calculated as: % inhibition (inactivation state)=(1−(ITP2, TA/ITP2, Control)×100%, where ITP2 (the inward peak Na+ currents), Control and ITP2, TA were elicited by the TP2 in control (vehicle only) and in the presence of a test article (TA) indicating Examples, respectively.

T1 sequence (Q15858 whole entry): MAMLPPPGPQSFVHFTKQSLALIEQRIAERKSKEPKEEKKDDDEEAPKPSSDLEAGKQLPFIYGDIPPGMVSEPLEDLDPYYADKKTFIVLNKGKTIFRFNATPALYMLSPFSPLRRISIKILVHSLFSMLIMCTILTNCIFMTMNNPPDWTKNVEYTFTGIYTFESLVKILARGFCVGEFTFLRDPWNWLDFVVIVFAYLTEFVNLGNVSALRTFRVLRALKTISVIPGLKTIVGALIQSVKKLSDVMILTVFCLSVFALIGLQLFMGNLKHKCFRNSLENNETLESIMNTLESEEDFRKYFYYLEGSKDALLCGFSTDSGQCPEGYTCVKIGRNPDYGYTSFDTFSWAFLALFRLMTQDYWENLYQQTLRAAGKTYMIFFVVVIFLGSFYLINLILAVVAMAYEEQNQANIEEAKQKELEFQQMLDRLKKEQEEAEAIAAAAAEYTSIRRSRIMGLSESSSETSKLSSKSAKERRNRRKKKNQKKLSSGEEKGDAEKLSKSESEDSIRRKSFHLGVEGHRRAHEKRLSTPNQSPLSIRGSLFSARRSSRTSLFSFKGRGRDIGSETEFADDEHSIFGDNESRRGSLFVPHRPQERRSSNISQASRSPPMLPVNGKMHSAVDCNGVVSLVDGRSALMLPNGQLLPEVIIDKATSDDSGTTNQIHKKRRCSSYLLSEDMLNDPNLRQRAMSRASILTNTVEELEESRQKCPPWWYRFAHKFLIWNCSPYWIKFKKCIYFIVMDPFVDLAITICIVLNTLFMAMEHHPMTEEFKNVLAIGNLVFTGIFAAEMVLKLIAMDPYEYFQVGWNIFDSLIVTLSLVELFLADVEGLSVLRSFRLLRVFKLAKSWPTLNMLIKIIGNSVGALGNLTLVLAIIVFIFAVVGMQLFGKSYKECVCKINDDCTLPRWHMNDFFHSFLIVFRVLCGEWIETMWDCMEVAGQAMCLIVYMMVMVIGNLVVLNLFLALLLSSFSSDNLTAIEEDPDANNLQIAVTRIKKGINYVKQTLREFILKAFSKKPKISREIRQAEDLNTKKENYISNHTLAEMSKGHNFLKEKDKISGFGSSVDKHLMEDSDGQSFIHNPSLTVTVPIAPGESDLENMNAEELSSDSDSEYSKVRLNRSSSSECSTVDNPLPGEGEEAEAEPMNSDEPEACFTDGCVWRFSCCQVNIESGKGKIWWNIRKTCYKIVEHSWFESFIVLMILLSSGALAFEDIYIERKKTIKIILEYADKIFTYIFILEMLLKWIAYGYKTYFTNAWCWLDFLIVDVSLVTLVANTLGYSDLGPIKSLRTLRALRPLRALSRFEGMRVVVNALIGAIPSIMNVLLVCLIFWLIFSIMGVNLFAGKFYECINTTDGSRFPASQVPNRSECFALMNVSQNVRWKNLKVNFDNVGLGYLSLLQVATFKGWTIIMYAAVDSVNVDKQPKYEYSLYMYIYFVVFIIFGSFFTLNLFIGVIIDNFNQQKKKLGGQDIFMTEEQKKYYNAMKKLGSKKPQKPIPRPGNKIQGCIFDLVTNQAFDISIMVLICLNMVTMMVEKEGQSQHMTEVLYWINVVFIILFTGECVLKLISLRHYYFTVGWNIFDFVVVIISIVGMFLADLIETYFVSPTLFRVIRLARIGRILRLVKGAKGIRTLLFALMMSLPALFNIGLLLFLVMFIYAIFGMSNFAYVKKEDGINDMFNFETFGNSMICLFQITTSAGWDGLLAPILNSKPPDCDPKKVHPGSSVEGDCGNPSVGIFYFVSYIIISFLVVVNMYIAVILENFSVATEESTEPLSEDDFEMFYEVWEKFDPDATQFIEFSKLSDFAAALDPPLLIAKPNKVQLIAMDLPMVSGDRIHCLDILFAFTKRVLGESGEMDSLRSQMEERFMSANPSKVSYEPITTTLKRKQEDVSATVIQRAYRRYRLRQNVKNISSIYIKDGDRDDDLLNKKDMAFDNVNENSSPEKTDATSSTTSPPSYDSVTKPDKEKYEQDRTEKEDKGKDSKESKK

inhibition at 10 µM | SMILES
40 to 70% | O=C(NCc1cccc[n+]1[O-])c1cccc(-c2cccc(OC(F)(F)F)c2)c1 [Example 8, N-[(1-oxidopyridin-1-ium-2-yl)methyl]-3-[3-(trifluoromethoxy)phenyl]benzamide]
70 to 100% | O=C(NCc1cccc[n+]1[O-])c1cccc(-c2ccc(Cl)cc2Cl)c1 [Example 9, 3-(2,4-dichlorophenyl)-N-[(1-oxidopyridin-1-ium-2-yl)methyl]benzamide]
70 to 100% | COc1cc(-c2cccc(C(=O)NCc3cccc[n+]3[O-])c2)ccc1C(F)(F)F [Example 49, 3-[3-methoxy-4-(trifluoromethyl)phenyl]-N-[(1-oxidopyridin-1-ium-2-yl)methyl]benzamide]
10 to 40% | CC(C)c1ccc(-c2cccc(C(=O)NCc3cccc[n+]3[O-])c2)cc1 [Example 24, 3-(4-isopropylphenyl)-N-[(1-oxidopyridin-1-ium-2-yl)methyl]benzamide]
70 to 100% | O=C(NCc1cccc[n+]1[O-])c1cccc(-c2ccc(F)c(C(F)(F)F)c2)c1 [Example 39, 3-[4-fluoro-3-(trifluoromethyl)phenyl]-N-[(1-oxidopyridin-1-ium-2-yl)methyl]benzamide]
70 to 100% | O=C(NCc1ccc(F)c[n+]1[O-])c1cccc(-c2ccc(Cl)cc2)c1 [Example 61, 3-(4-chlorophenyl)-N-[(5-fluoro-1-oxido-pyridin-1-ium-2-yl)methyl]benzamide]
70 to 100% | O=C(NCc1cccc[n+]1[O-])c1cccc(-c2ccc(C(F)(F)F)cc2)c1 [Example 1, N-[(1-oxidopyridin-1-ium-2-yl)methyl]-3-[4-(trifluoromethyl)phenyl]benzamide]
70 to 100% | O=C(NCc1cccc[n+]1[O-])c1cc(-c2ccc(F)c(F)c2)ccc1F [Example 54, 5-(3,4-difluorophenyl)-2-fluoro-N-[(1-oxidopyridin-1-ium-2-yl)methyl]benzamide]
40 to 70% | O=C(NCc1cccc[n+]1[O-])c1cccc(-c2ccc(F)cc2F)c1 [Example 31, 3-(2,4-difluorophenyl)-N-[(1-oxidopyridin-1-ium-2-yl)methyl]benzamide]
40 to 70% | COc1ccc(-c2cccc(C(=O)NCc3cccc[n+]3[O-])c2)c(C(F)(F)F)c1 [Example 50, 3-[4-methoxy-2-(trifluoromethyl)phenyl]-N-[(1-oxidopyridin-1-ium-2-yl)methyl]benzamide]
70 to 100% | O=C(NCc1cccc[n+]1[O-])c1cc(-c2cccc(Cl)c2)ccc1F [Example 52, 5-(3-chlorophenyl)-2-fluoro-N-[(1-oxidopyridin-1-ium-2-yl)methyl]benzamide]
40 to 70% | O=C(NCc1cccc[n+]1[O-])c1cccc(-c2ccc(Cl)c(F)c2)c1 [Example 30, 3-(4-chloro-3-fluoro-phenyl)-N-[(1-oxidopyridin-1-ium-2-yl)methyl]benzamide]
70 to 100% | O=C(NCc1cccc[n+]1[O-])c1cc(-c2ccc(OC(F)(F)F)cc2)ccc1F [Example 58, 2-fluoro-N-[(1-oxidopyridin-1-ium-2-yl)methyl]-5-[4-(trifluoromethoxy)phenyl]benzamide]
40 to 70% | Cc1cc(C(F)(F)F)ccc1-c1cccc(C(=O)NCc2cccc[n+]2[O-])c1 [Example 38, 3-[2-methyl-4-(trifluoromethyl)phenyl]-N-[(1-oxidopyridin-1-ium-2-yl)methyl]benzamide]
70 to 100% | O=C(NCc1cccc[n+]1[O-])c1cccc(-c2cc(F)cc(F)c2)c1 [Example 32, 3-(3,5-difluorophenyl)-N-[(1-oxidopyridin-1-ium-2-yl)methyl]benzamide]
40 to 70% | O=C(NCc1cccc[n+]1[O-])c1cccc(-c2ccc(C(F)(F)F)cc2F)c1 [Example 16, 3-[2-fluoro-4-(trifluoromethyl)phenyl]-N-[(1-oxidopyridin-1-ium-2-yl)methyl]benzamide]
40 to 70% | O=C(NCc1cccc[n+]1[O-])c1cccc(-c2ccccc2)c1 [Example 12, N-[(1-oxidopyridin-1-ium-2-yl)methyl]-3-phenyl-benzamide]
70 to 100% | O=C(NCc1cccc[n+]1[O-])c1cccc(-c2cc(F)cc(Cl)c2)c1 [Example 29, 3-(3-chloro-5-fluoro-phenyl)-N-[(1-oxidopyridin-1-ium-2-yl)methyl]benzamide]
40 to 70% | O=C(NCc1cccc[n+]1[O-])c1cccc(-c2cc(Cl)ccc2Cl)c1 [Example 10, 3-(2,5-dichlorophenyl)-N-[(1-oxidopyridin-1-ium-2-yl)methyl]benzamide]

inhibition at 10 µM | SMILES
40 to 70% | O=C(NCc1cccc[n+]1[O-])c1cccc(-c2cccc(C(F)(F)F)c2)c1 [Example 5, N-[(1-oxidopyridin-1-ium-2-yl)methyl]-3-[3-(trifluoromethyl)phenyl]benzamide]
70 to 100% | COc1cc(OC(F)(F)F)ccc1-c1ccc(F)c(C(=O)NCc2cccc[n+]2[O-])c1 [Example 56, 2-fluoro-5-[2-methoxy-4-(trifluoromethoxy)phenyl]-N-[(1-oxidopyridin-1-ium-2-yl)methyl]benzamide]
40 to 70% | O=C(NCc1cccc[n+]1[O-])c1cccc(-c2cccc(Cl)c2)c1 [Example 4, 3-(3-chlorophenyl)-N-[(1-oxidopyridin-1-ium-2-yl)methyl]benzamide]
70 to 100% | COc1ccccc1-c1cccc(C(=O)NCc2cccc[n+]2[O-])c1 [Example 40, 3-(2-methoxyphenyl)-N-[(1-oxidopyridin-1-ium-2-yl)methyl]benzamide]
70 to 100% | Cc1cc(-c2cccc(C(=O)NCc3cccc[n+]3[O-])c2)ccc1C(F)(F)F [Example 43, 3-[3-methyl-4-(trifluoromethyl)phenyl]-N-[(1-oxidopyridin-1-ium-2-yl)methyl]benzamide]
70 to 100% | O=C(NCc1cccc[n+]1[O-])c1cccc(-c2ccc(C(F)(F)F)cc2C(F)(F)F)c1 [Example 11, 3-[2,4-bis(trifluoromethyl)phenyl]-N-[(1-oxidopyridin-1-ium-2-yl)methyl]benzamide]
40 to 70% | O=C(NCc1cccc[n+]1[O-])c1cccc(-c2ccc(C3CC3)cc2)c1 [Example 36, 3-(4-cyclopropylphenyl)-N-[(1-oxidopyridin-1-ium-2-yl)methyl]benzamide]
70 to 100% | CC(C)c1cccc(-c2cccc(C(=O)NCc3cccc[n+]3[O-])c2)c1 [Example 35, 3-(3-isopropylphenyl)-N-[(1-oxidopyridin-1-ium-2-yl)methyl]benzamide]
70 to 100% | O=C(NCc1cccc[n+]1[O-])c1cc(-c2ccc(Cl)cc2)ccc1Cl [Example 62, 2-chloro-5-(4-chlorophenyl)-N-[(1-oxidopyridin-1-ium-2-yl)methyl]benzamide]
10 to 40% | O=C(NCc1cccc[n+]1[O-])c1cccc(-c2cccc(F)c2F)c1 [Example 34, 3-(2,3-difluorophenyl)-N-[(1-oxidopyridin-1-ium-2-yl)methyl]benzamide]
70 to 100% | O=C(NCc1cccc[n+]1[O-])c1cc(-c2ccc(C(F)(F)F)cc2)ccc1F [Example 57, 2-fluoro-N-[(1-oxidopyridin-1-ium-2-yl)methyl]-5-[4-(trifluoromethyl)phenyl]benzamide]
40 to 70% | Cc1cccc(-c2cccc(C(=O)NCc3cccc[n+]3[O-])c2)c1 [Example 23, 3-(m-tolyl)-N-[(1-oxidopyridin-1-ium-2-yl)methyl]benzamide]
70 to 100% | CC(C)(O)c1ccc(-c2cccc(C(=O)NCc3cccc[n+]3[O-])c2)cc1 [Example 44, 3-[4-(1-hydroxy-1-methyl-ethyl)phenyl]-N-[(1-oxidopyridin-1-ium-2-yl)methyl]benzamide]
40 to 70% | O=C(NCc1cccc[n+]1[O-])c1cccc(-c2ccccc2C(F)(F)F)c1 [Example 21, N-[(1-oxidopyridin-1-ium-2-yl)methyl]-3-[2-(trifluoromethyl)phenyl]benzamide]
10 to 40% | O=C(NCc1cccc[n+]1[O-])c1cccc(-c2cc(F)c(F)c(F)c2)c1 [Example 33, N-[(1-oxidopyridin-1-ium-2-yl)methyl]-3-(3,4,5-trifluorophenyl)benzamide]
70 to 100% | O=C(NCc1cccc[n+]1[O-])c1cccc(-c2ccc(Cl)c(Cl)c2)c1 [Example 6, 3-(3,4-dichlorophenyl)-N-[(1-oxidopyridin-1-ium-2-yl)methyl]benzamide]
40 to 70% | O=C(NCc1cccc[n+]1[O-])c1cccc(-c2ccc(F)cc2)c1 [Example 18, 3-(4-fluorophenyl)-N-[(1-oxidopyridin-1-ium-2-yl)methyl]benzamide]
70 to 100% | Cc1cc(-c2cccc(C(=O)NCc3cccc[n+]3[O-])c2)ccc1Cl [Example 28, 3-(4-chloro-3-methyl-phenyl)-N-[(1-oxidopyridin-1-ium-2-yl)methyl]benzamide]
70 to 100% | COc1cc(-c2ccc(F)c(C(=O)NCc3cccc[n+]3[O-])c2)ccc1C(F)(F)F [Example 59, 2-fluoro-5-[3-methoxy-4-(trifluoromethyl)phenyl]-N-[(1-oxidopyridin-1-ium-2-yl)methyl]benzamide]
